Earlier results on 1 compound are cited in US20090252647A1, “COMPOSITIONS AND METHODS FOR APPLYING ANTIMICROBIALS TO SUBSTRATES” (Crosstex International, Inc., priority 2008, published 2009).

Molecules are shown by their SMILES.

As to `CCCCCCCCCCCCCCCCCC[N+](C)(C)CCC[Si](O)(O)O.[Cl-]` [3-(trihydroxysilyl)propyldimethyloctadecyl ammonium chloride], the solubility in water result is “approximately 15 % w/v”.
